Here are results for two molecules from BindingDB's records for doi:10.1016/j.bmcl.2009.03.149 (Gsk, 2009).

What all share (experiment): Enzyme Inhibition Assay
One assay addresses Beta-secretase 1 (Homo sapiens, UniProt P56817). The note with it: pH 4.5; 22 °C.
The target of another assay is T1, Beta-secretase 2 (Homo sapiens, UniProt Q9Y5Z0).
T1 sequence (Q9Y5Z0 whole entry): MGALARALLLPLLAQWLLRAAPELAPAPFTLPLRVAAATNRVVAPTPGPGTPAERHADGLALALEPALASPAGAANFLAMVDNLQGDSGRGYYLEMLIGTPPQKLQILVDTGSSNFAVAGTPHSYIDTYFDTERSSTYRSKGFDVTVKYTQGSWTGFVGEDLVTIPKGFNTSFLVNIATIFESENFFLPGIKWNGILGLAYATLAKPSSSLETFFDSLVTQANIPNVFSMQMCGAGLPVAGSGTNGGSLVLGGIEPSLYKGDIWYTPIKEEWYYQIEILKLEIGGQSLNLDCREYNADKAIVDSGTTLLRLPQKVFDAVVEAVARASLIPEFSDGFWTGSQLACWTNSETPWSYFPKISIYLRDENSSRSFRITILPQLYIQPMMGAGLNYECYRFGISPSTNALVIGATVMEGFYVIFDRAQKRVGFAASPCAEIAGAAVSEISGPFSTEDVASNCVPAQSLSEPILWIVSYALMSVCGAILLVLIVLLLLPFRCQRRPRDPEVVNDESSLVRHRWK

The next assay addresses Cathepsin D (Homo sapiens, UniProt P07339).

Sequence of Cathepsin D (P07339 65-162 limits assumed): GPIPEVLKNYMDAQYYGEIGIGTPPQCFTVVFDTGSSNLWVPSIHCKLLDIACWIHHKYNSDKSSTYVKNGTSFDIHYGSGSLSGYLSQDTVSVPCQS
Sequence of Cathepsin D (P07339 169-412 limits assumed): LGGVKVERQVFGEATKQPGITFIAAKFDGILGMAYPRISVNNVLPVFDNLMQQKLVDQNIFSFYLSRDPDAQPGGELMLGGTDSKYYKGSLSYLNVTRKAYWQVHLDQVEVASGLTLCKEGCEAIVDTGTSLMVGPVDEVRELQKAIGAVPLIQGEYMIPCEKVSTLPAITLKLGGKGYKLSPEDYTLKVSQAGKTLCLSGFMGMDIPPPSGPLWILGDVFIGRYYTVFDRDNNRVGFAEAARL
Sequence of Beta-secretase 1 (P56817 whole entry): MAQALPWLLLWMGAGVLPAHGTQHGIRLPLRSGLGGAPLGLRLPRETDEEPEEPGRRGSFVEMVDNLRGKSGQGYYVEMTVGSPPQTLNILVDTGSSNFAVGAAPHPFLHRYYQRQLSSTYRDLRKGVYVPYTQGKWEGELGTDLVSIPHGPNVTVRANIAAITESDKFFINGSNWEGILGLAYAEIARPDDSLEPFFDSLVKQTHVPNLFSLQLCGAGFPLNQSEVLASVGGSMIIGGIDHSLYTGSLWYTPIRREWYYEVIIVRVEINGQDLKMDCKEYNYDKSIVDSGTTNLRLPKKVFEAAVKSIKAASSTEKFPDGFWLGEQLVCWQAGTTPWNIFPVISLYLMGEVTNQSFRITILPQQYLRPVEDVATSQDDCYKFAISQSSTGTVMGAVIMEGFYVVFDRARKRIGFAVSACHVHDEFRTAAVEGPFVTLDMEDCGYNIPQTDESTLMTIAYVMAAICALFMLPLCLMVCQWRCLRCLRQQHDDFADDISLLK

A word on the IC50: it is the concentration at which inhibition is half-maximal. Take `CCc1cn2c3c(cc(C(=O)N[C@@H](Cc4ccccc4)[C@H](O)CNC4CCOCC4)cc13)OS(=O)(=O)CC2` [sulfone tricyclic analogue, 19]: the IC50 against Beta-secretase 1 was 86 nM; at Beta-secretase 2 it was 450 nM; at Cathepsin D (pH 4.5, 22 °C), 130 nM.
As to `CCc1cn2c3c(cc(C(=O)N[C@@H](Cc4ccccc4)[C@H](O)CNC4CCOCC4)cc13)N(C)S(=O)(=O)CC2` [BMCL193674 Compound 6], the IC50 against Beta-secretase 1 was 15 nM; against Beta-secretase 2 it was 490 nM; against Cathepsin D, 6610 nM.
